The values below come from patent US9227935B2, “Piperidine/piperazine derivatives” (Janssen Pharmaceutica N.V., priority 2007, dated 2016).

The target of this test is T1, human DGAT1 (Homo sapiens, UniProt O75907).
T1 construct: FLAG (N); made in house; host or cells: SF9 insect cells (baculovirus, pFastBac); total cell membranes used as the enzyme source
T1 sequence (O75907 1-488): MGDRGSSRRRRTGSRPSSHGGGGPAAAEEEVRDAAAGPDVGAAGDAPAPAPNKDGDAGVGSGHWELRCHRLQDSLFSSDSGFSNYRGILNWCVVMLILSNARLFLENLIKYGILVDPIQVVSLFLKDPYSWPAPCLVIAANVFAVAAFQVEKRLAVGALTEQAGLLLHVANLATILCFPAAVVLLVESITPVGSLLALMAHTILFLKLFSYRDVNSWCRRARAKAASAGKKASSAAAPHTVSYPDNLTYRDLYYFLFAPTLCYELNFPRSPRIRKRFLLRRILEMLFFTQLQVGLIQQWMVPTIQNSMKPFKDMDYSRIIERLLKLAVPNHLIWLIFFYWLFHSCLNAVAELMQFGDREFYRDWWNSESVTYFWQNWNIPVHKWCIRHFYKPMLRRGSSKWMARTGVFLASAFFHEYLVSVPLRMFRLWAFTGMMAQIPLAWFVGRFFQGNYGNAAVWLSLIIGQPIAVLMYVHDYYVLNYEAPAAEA
In words: DGAT1 FlashPlate inhibition assay with DGAT1 membrane preparations. In kind it is biochemical. As to conditions: IC50 values expressed in M; pIC50 = -logIC50; inhibition of DGAT1 activity. From the text:
The inhibiting activity of the present compounds on DGAT1 activity was screened in a single well procedure assay using DGAT1 comprising membrane preparations and DGAT1 substrate comprising micelles and determining formed radio-active triacylglycerol coming in close proximity of a flashplate surface by radioluminescence.
Said assay is described in full detail in WO2006/067071, the content of which is incorporated herein by reference.
By DGAT1 activity is meant the transfer of coenzyme A activated fatty acids to the 3-position of 1,2-diacylglycerols, thus forming a triglyceride molecule, by enzyme DGAT1.
human DGAT1 (NM012079.2) was cloned into the pFastBac vector, containing translation start, a FLAG-tag at the N-terminus as described in literature and a viral Kozak sequence (AAX) preceding the ATG to improve expression in insect cells. Expression was done as described in literature (Cases, S., Smith, S. J., Zheng, Y., Myers H. M., Lear, S. R., Sande, E., Novak, S., Collins, C., Welch, C. B., Lusis, A. J., Erickson, S. K. and Farese, R. V. (1998) Proc. Natl. Acad. Sci. USA 95, 13018-13023.) using SF9 cells.
72 h transfected SF9 cells were collected by centrifugation (13000 rpm-15 min-4° C.) and lysed in 2×500 ml lysis buffer (0.1M Sucrose, 50 mM KCl, 40 mM KH2PO4, 30 mM EDTA pH 7.2. Cells were homogenized by cell disruptor. After centrifugation 1380 rpm-15 min-4° C. (SN discarded), pellet was resuspended in 500 ml lysis buffer and total cell membranes collected by ultracentrifugation at 34000 rpm (100 000 g) for 60 min (4° C.). The collected membranes were resuspended in lysis buffer, divided in aliquots and stored with 10% glycerol at −80° C. until use.
Add 1 ml dioleoyl-sn-glycerol (10 mg/ml) to 10 ml of L-α-phosphatidylcholine (1 mg/ml) and 10 ml of L-α-phosphatidyl-L-serine (1 mg/ml) in a thick glass recipient. Evaporate under nitrogen and put on ice for 15 minutes. Reconstitute in 10 ml Tris/HCl (10 mM, pH 7.4) by sonication on ice. The sonification process consists of sonification cycles of 10 seconds in the sonification bath followed by 10 seconds cool down on ice and repeating this sonification cycle till a homogeneous solution is obtained (takes about 15 minutes). The thus obtained micelles are stored at −20° C. till later use and contain DAG at a final concentration of 1.61 mM.
• 50 mM Tris-HCl (pH 7.4), 150 mM MgCl2, 1 mM EDTA, 0.2% BSA. b) N-ethylmaleimide, 5M • Dissolve 5 g into a final volume of 8 ml DMSO 100% and store at −20° C. in aliquots till later use. c) Substrate mix (for 1 384 well plate=3840 μl) • 612 μl micelles stock (51 μM final) • 16.6 μl oleoylCoA 9.7 mM • 23 μl [^3H]-oleoylCoA (49 Ci/mmol, 500 μCi/ml) • 3188.4 μl Tris pH 7.4, 10 mM d) Enzyme mix (for 1 384 well plate=3520 μl) (5 μg/ml) • Add 11.73 μl of DGAT membrane stock (1500 μg/ml stock) to 3508 μl assay buffer. e) Stop mix (for 1 384 well plate=7.68 ml) (250 mM) • Add 384 μl of N-ethylmaleimide (5M) to 3.456 ml DMSO 100%, and further dilute 3.84 ml of said solution with 3.84 ml DMSO 10%. Method
DGAT activity in membrane preparations was assayed in 50 mM Tris-HCl (pH 7.4), 150 mM MgCl2, 1 mM EDTA and 0.2% BSA, containing 50 μM DAG, […] PC/PS and 8.4 μM [^3H]-oleoylCoA (at a specific activity of 30 nCi/well) in a final volume of 50 μl in 384-well format using the red shifted Basic Image FlashPlate™ (Perkin Elmer Cat. No. SMP400).
In detail, 10 μl enzyme mix and 10 μl substrate mix were added to 30 μl of assay buffer, optionally in the presence of 1 μl DMSO (blank and controls) or 1 μl of the compound to be tested. This reaction mixture was incubated for 120 minutes at 37° C. and the enzymatic reaction stopped by adding 20 μl of the stop mix. The plates were sealed and the vesicles allowed to settle overnight at room temperature. Plates were centrifuged for 5 minutes at 1500 rpm and measured in Leadseeker. […]

Structures are written as SMILES.

For `O=C(Nc1ccc(N2CCN(C(=O)Nc3c(Cl)cccc3Cl)CC2)cc1)c1ccc(-c2cnco2)cc1` [Compound 15], the concentration for half-maximal inhibition (IC50) was 12.9 nM.
The result for `O=C(Nc1ccc(N2CCN(C(=O)Nc3ccccc3Oc3ccccc3)CC2)cc1)c1ccccc1-c1ccc(C(F)(F)F)cc1` [Compound 105] reads 3310 nM.
As for `Cc1cccc(C)c1NC(=O)N1CCN(c2ccc(NC(=O)c3ccccc3-c3ccc(C(F)(F)F)cc3)cc2)CC1` [Compound 82], 269 nM corresponded to half-maximal inhibition (IC50).
`CCOC(=O)Cc1cccc(C(=O)Nc2ccc(N3CCN(C(=O)Nc4c(Cl)cc(CN5CCCCC5)cc4Cl)CC3)cc2)c1` [Compound 138] had an IC50 of 11.5 nM.
As for `O=C(Nc1ccc(C2CCN(C(=O)Nc3c(Cl)cccc3Cl)CC2)cc1)c1ccccc1-c1ccccc1` [Compound 56], the figure is 331 nM.
In turn, `Cc1ccc(C)n1-c1cccc(C(=O)Nc2ccc(N3CCN(C(=O)Nc4c(Cl)cccc4Cl)CC3)cc2)c1` [Compound 20] showed an IC50 of 30.9 nM.
In turn, `CN1CC(C(=O)Nc2ccc(N3CCN(C(=O)Nc4c(Cl)cccc4Cl)CC3)cc2)CC1=O` (centres unmarked) [Compound 11] had an IC50 of 1120 nM.
In turn, `O=C(Nc1ccc(N2CCN(C(=O)Nc3c(Cl)cccc3Cl)CC2)cc1)c1ccc(-n2ccnc2)cc1` [Compound 24] gave an IC50 of 347 nM.
The result for `Cc1cc(Br)cc(C)c1NC(=O)N1CCN(c2ccc(NC(=O)c3ccccc3-c3ccc(C(F)(F)F)cc3)cc2)CC1` [Compound 100] reads 1550 nM.
Molecule `O=C(Nc1ccc(N2CCN(C(=O)Nc3c(Cl)cccc3Cl)CC2)cc1)c1cccc(N2CCOCC2)c1` [Compound 40] gave an IC50 of 6.61 nM.
For `O=C(O)Cc1cccc(C(=O)Nc2ccc(N3CCN(C(=O)Nc4c(Cl)cc(CN5CCCCC5)cc4Cl)CC3)cc2)c1` [Compound 143], the IC50 is 3310 nM.
`Cc1cc(C)c(NC(=O)N2CCN(c3ccc(NC(=O)c4ccccc4-c4ccc(C(F)(F)F)cc4)cc3)CC2)c(Cl)c1` [Compound 102]: the IC50 is 170 nM.
On to `Cc1cc(C)n(-c2cccc(C(=O)Nc3ccc(N4CCN(C(=O)Nc5c(Cl)cccc5Cl)CC4)cc3)c2)n1` [Compound 28], for which the IC50 was 5.01 nM.
Take `O=C(Nc1ccc(N2CCN(C(=O)Nc3c(Cl)cccc3Cl)CC2)cc1)c1ccc(-c2cc[nH]n2)cc1` [Compound 25]: the IC50 is 70.8 nM.
`O=C(Nc1ccc(C2CCN(C(=O)Nc3c(Cl)cccc3Cl)CC2)cc1)C1CC(O)CN1` (centres unmarked) [Compound 47] showed an IC50 of 5370 nM.
The result for `O=C(Nc1ccc(N2CCN(C(=O)Nc3c(Cl)cccc3Cl)CC2)cc1)c1ccccc1-c1ccccc1` [Compound 34] reads 20.4 nM.
With `Cc1ccccc1-c1cccc(C(=O)Nc2ccc(C3CCN(C(=O)Nc4c(Cl)cccc4Cl)CC3)cc2)c1` [Compound 60], it took 17.4 nM to reach half-maximal inhibition (IC50).
Take `Cc1cc(C)n(-c2ccc(C(=O)Nc3ccc(N4CCN(C(=O)Nc5c(Cl)cccc5Cl)CC4)cc3)cc2)n1` [Compound 27]: the IC50 was 3.89 nM.
As for `Cc1cccc([N+](=O)[O-])c1NC(=O)N1CCN(c2ccc(NC(=O)c3ccccc3-c3ccc(C(F)(F)F)cc3)cc2)CC1` [Compound 95], the figure is 407 nM.
`CC(C)(C)OC(=O)N1CCCC1C(=O)Nc1ccc(C2CCN(C(=O)Nc3c(Cl)cccc3Cl)CC2)cc1` (centres unmarked) [Compound 51]: the concentration for half-maximal inhibition (IC50) is 490 nM.
As to `Cc1ccc2c(c1)C(=O)c1cc(C)cc(C(=O)Nc3ccc(N4CCN(C(=O)Nc5c(Cl)cccc5Cl)CC4)cc3)c1-2` [Compound 67], the IC50 is 148 nM.
Molecule `CCc1cccc(C)c1NC(=O)N1CCC(c2ccc(NC(=O)c3ccccc3-c3ccc(C(F)(F)F)cc3)cc2)CC1` [Compound 110] showed an IC50 of 955 nM.
In turn, `CCOC(=O)c1ccccc1NC(=O)N1CCN(c2ccc(NC(=O)c3ccccc3-c3ccc(C(F)(F)F)cc3)cc2)CC1` [Compound 87] gave an IC50 of 7410 nM.
In turn, `Cc1nc(C(=O)Nc2ccc(N3CCN(C(=O)Nc4c(Cl)cccc4Cl)CC3)cc2)c(-c2cccc(C(F)(F)F)c2)s1` [Compound 65] had a half-maximal inhibitory concentration (IC50) of 204 nM.
With `O=C(Nc1ccc(C2=CCN(C(=O)NCc3ccccc3)CC2)cc1)c1ccccc1-c1ccc(C(F)(F)F)cc1` [Compound 121], the IC50 is 4900 nM.
As for `O=C(Nc1ccc(N2CCN(C(=O)Nc3ccccc3F)CC2)cc1)c1ccccc1-c1ccc(C(F)(F)F)cc1` [Compound 90], the figure is 2950 nM; as for `O=C(Nc1ccc(N2CCN(C(=O)Nc3c(Cl)cccc3Cl)CC2)cc1)c1ccccc1-n1ccnc1` [Compound 22], 1380 nM.
Regarding `CC(C)c1ccc(-c2ccccc2C(=O)Nc2ccc(C3CCN(C(=O)Nc4c(Cl)cccc4Cl)CC3)cc2)cc1` [Compound 61], the midpoint of inhibition, the IC50, lay at 427 nM.
In turn, `O=C(Nc1ccc(N2CCN(C(=O)Nc3c(Cl)cccc3Cl)CC2)cc1)c1cccc(N2CCCCC2)c1` [Compound 37] showed an IC50 of 1.74 nM.
As for `Cc1cccc(C)c1NC(=O)N1CCC(c2ccc(NC(=O)c3ccccc3-c3ccc(C(F)(F)F)cc3)cc2)CC1` [Compound 128], the figure is 661 nM; as for `COc1cccc(OC)c1NC(=O)N1CCC(c2ccc(NC(=O)c3ccccc3-c3ccc(C(F)(F)F)cc3)cc2)CC1` [Compound 111], 4570 nM.
On to `Cc1ccc(C(=O)Nc2ccc(C3CCN(C(=O)Nc4c(Cl)cccc4Cl)CC3)cc2)c(-c2ccc(C(F)(F)F)cc2)c1` [Compound 58], for which inhibition was half-maximal at 355 nM (IC50).
`O=C(Nc1ccc(C2CCN(C(=O)Nc3c(Cl)cccc3Cl)CC2)cc1)c1ccccc1-c1ccc(Cl)cc1` [Compound 57]: the IC50 is 646 nM.
As for `O=C(Nc1ccc(N2CCN(C(=O)Nc3c(Br)cc(Br)cc3Br)CC2)cc1)c1ccccc1-c1ccc(C(F)(F)F)cc1` [Compound 97], the figure is 490 nM.
As for `Cc1cc(C)c(NC(=O)N2CCN(c3ccc(NC(=O)c4ccccc4-c4ccc(C(F)(F)F)cc4)cc3)CC2)c(C)c1Br` [Compound 104], the figure is 2000 nM; as for `CCc1ccccc1NC(=O)N1CCC(c2ccc(NC(=O)c3ccccc3-c3ccc(C(F)(F)F)cc3)cc2)CC1` [Compound 108], 4470 nM; as for `Cc1cc(C)c(NC(=O)N2CCC(c3ccc(NC(=O)c4ccccc4-c4ccc(C(F)(F)F)cc4)cc3)CC2)c(Br)c1` [Compound 118], 631 nM.
For `O=C(Nc1ccc(N2CCN(C(=O)Nc3c(Cl)cccc3Cl)CC2)cc1)c1ccc(-n2cccn2)cc1` [Compound 21], the half-maximal inhibitory concentration (IC50) is 8.91 nM.

As a reminder, the IC50 is the point on the concentration scale where inhibition reaches its midpoint.
